Source: patent US9533985B2, “Sulfonamide derivative and medicinal use thereof” (EA Pharma Co., Ltd., priority 2012, dated 2017)

Target: α4β7 integrin (Homo sapiens (Human), UniProt P13612+P26010)
Test: MAdCAM-1/α4β7 integrin binding inhibitory activity evaluation test in the presence of serum (2)
Type: cell-based
Conditions: RPMI-8866 cells binding to mouse MAdCAM-1/Fc, same manner as Test (3), read-out: α4β7 Rank of activity with serum added
Procedure: The ability of test substances to inhibit the binding of a human B cell line, RPMI-8866, which is known to express α4β7 integrin, to MAdCAM-1 was measured.
To 96-well microtiter plates, recombinant mouse MAdCAM-1/Fc (R&D systems) solution (1 μg/mL) diluted with buffer A (carbonate buffer, pH 9.6) was added at 50 μL/well, followed by incubation at 4° C. overnight. After washing once with PBS, Block Ace (Snow Brand Milk Products Company, Limited) was added at 150 μL/well, followed by incubation at room temperature for 2 hours. After removal, washing was conducted once with PBS.
100 μL of each test substance diluted with a binding buffer (DMEM containing 40 mM HEPES, 0.2% BSA, and 4 mM MnCl2) to various concentrations and 100 μL of RPMI-8866 cells (2×10^6 cell/mL) were added to plates coated with MAdCAM-1/Fc (5×10^5 cells/well) with human serum being contained at a final concentration of 50%, followed by incubation at 30° C. for 15 minutes to 60 minutes. After the cells were bound to each well, unbound cells were removed by washing with PBS. To the plates, buffer C (PBS containing 1.5% Triton X-100) was added at 50 μL/well to lyse the bound RPMI-8866 cells. To 30 μL of the cell lysate, 30 μL of Substrate Buffer (Promega, CytoTox 96 Non-Radioactive Cytotoxicity Assay) was added, and the reaction was allowed to proceed at room temperature in a dark place for 30 minutes. To each well, 30 μL of Stop Solution (Promega, CytoTox 96 Non-Radioactive Cytotoxicity Assay) was added, and the absorbance at 490 nm was measured by using a plate reader. Here, by the obtained absorbance, the activity of the lactate dehydrogenase (LDH) dissolved into the supernatant of each well was detected. In other words, the absorbance was proportional to the number of the RPMI-8866 cells bound to MAdCAM-1 and remaining on the plate. The test was duplicated. The binding ratios of the cells at various concentrations were determined, with the absorbance of a well containing no test substance taken as 100%. Then, the concentration IC50, at which 50% binding inhibition was achieved, was calculated.
The MAdCAM-1/α4β7 integrin binding inhibitory activity in the presence of serum was measured in the same manner as in Test (3) described above. […] The VCAM-1/α4β1 integrin binding inhibitory activity evaluation test and the MAdCAM-1/α4β7 integrin binding inhibitory activity evaluation test were carried out according to the methods described in Tests (1) and (2) described above.

Sequence of α4β7 integrin (P13612 34-1032): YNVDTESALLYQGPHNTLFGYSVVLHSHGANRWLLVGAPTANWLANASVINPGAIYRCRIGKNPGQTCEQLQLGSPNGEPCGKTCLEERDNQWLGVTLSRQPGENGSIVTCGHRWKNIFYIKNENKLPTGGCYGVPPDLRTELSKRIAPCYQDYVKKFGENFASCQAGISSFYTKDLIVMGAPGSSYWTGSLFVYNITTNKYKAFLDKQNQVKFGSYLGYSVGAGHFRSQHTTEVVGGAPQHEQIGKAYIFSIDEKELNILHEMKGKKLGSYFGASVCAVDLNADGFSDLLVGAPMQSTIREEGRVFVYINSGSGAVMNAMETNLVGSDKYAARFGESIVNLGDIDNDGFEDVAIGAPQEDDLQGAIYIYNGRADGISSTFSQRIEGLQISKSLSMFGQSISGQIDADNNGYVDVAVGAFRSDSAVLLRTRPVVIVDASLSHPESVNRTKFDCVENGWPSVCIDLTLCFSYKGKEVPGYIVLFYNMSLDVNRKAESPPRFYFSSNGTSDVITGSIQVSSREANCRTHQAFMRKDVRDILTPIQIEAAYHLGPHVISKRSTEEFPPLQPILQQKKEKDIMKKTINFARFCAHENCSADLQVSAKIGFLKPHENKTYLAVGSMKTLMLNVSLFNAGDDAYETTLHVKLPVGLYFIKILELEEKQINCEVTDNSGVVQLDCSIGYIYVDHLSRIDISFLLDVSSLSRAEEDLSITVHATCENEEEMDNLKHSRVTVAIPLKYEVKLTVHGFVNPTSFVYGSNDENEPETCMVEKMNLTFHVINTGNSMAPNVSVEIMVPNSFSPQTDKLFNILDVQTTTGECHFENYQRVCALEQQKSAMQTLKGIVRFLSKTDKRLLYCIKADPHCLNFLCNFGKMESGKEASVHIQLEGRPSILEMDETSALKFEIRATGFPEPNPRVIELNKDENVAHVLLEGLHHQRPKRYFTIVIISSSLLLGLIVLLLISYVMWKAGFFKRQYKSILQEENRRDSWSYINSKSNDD
Sequence of α4β7 integrin (P26010 20-798): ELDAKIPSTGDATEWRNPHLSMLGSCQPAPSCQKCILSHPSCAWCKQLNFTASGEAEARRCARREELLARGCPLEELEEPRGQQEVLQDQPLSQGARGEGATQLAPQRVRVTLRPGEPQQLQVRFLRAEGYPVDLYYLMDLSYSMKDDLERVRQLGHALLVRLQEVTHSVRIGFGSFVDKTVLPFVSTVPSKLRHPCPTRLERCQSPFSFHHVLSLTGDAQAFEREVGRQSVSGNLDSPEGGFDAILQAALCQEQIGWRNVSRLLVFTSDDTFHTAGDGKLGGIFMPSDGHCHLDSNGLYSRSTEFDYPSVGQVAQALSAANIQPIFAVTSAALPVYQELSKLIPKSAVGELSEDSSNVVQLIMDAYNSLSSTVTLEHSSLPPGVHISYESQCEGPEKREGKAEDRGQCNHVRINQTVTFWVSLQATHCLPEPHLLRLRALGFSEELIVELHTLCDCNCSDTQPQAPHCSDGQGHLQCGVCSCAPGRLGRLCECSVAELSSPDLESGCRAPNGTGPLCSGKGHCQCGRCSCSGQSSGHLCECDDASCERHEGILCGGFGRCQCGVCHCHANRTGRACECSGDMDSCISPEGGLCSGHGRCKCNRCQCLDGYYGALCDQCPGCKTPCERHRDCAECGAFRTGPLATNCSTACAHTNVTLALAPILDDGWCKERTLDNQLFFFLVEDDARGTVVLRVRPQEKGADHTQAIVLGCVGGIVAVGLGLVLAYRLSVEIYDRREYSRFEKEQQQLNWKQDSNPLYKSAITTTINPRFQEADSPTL

Question: With Cn1ccc(=O)n(-c2ccc(C[C@H](NC(=O)c3c(F)cc(NS(=O)(=O)c4ccc(C(=O)NCC5CC5)cc4)cc3F)C(=O)O)cc2)c1=O [Example 157, N-(4-{[(4-{[(Cyclopropylmethyl)amino]carbonyl}phenyl)sulfonyl]amino}-2,6-difluorobenzoyl)-4-(3-methyl-2,6-dioxo-3,6-dihydropyrimidin-1(2H)-yl)-L-phenylalanine] as the compound, how does the IC50 read?
Answer: Its IC50 is 10 to 50 nM.

Question: Which IC50 does the source give for Cc1cc(C(=O)NC(C)(C)C)ccc1S(=O)(=O)Nc1cc(F)c(C(=O)N[C@@H](Cc2ccc(-n3c(=O)ccn(C)c3=O)cc2)C(=O)O)c(F)c1 [Example 158, N-{4-[({4-[(tert-Butylamino)carbonyl]-2-methylphenyl}sulfonyl)amino]-2,6-difluorobenzoyl}-4-(3-methyl-2,6-dioxo-3,6-dihydropyrimidin-1(2H)-yl)-L-phenylalanine] here?
Answer: Its IC50 is no more than 10 nM.

Question: Cn1ccc(=O)n(-c2ccc(C[C@H](NC(=O)c3c(F)cc(NS(=O)(=O)c4ccc(-c5ncccn5)cn4)cc3F)C(=O)O)nc2)c1=O [Example 159, N-(2,6-Difluoro-4-{[(5-pyrimidin-2-yl-pyridin-2-yl)sulfonyl]amino}benzoyl)-3-[5-(3-methyl-2,6-dioxo-3,6-dihydropyrimidin-1(2H)-yl)pyridin-2-yl]-L-alanine] was tested. Which IC50 did it give?
Answer: The IC50 was 10 to 50 nM.

Question: How did the IC50 turn out when Cn1ccc(=O)n(-c2ccc(C[C@H](NC(=O)c3c(F)cc(NS(=O)(=O)c4ccc(-n5cccc5)cn4)cc3F)C(=O)O)cc2)c1=O [Example 162, N-[2,6-Difluoro-4-({[5-(1H-pyrrol-1-yl)pyridin-2-yl]sulfonyl}amino)benzoyl]-4-(3-methyl-2,6-dioxo-3,6-dihydropyrimidin-1(2H)-yl)-L-phenylalanine] was run?
Answer: The IC50 was 10 to 50 nM.

Question: For Cn1c(=O)n(-c2ccc(C[C@H](NC(=O)c3ccc(NS(=O)(=O)c4ccc(-c5cncnc5)cn4)cc3F)C(=O)O)cc2)c(=O)c2ccncc21 [Example 163, N-(2-Fluoro-4-{[(5-pyrimidin-5-yl-pyridin-2-yl)sulfonyl]amino}benzoyl)-4-(1-methyl-2,4-dioxo-1,4-dihydropyrido[3,4-d]pyrimidin-3(2H)-yl)-L-phenylalanine], which IC50 is on record?
Answer: The IC50 was 10 to 50 nM.

Question: For CCNC(=O)c1ccc(S(=O)(=O)Nc2cc(F)c(C(=O)N[C@@H](Cc3ccc(-n4c(=O)ccn(C)c4=O)cc3)C(=O)O)c(F)c2)cn1 [Example 164, N-{4-[({6-[(Ethylamino)carbonyl]pyridin-3-yl}sulfonyl)amino]-2,6-difluorobenzoyl}-4-(3-methyl-2,6-dioxo-3,6-dihydropyrimidin-1(2H)-yl)-L-phenylalanine], which IC50 is on record?
Answer: The IC50 was 10 to 50 nM.

Question: How did the IC50 turn out when Cn1ccc(=O)n(-c2ccc(C[C@H](NC(=O)c3c(F)cc(NS(=O)(=O)c4ccc(C(=O)NC5CCCC5)cc4)cc3F)C(=O)O)cc2)c1=O [Example 165, N-{4-[({4-[(Cyclopentylamino)carbonyl]phenyl}sulfonyl)amino]-2,6-difluorobenzoyl}-4-(3-methyl-2,6-dioxo-3,6-dihydropyrimidin-1(2H)-yl)-L-phenylalanine] was run?
Answer: The IC50 was no more than 10 nM.

Question: With Cn1c(=O)n(-c2ccc(C[C@H](NC(=O)c3c(F)cc(NS(=O)(=O)c4ccc(C(=O)NC5CCCC5)cc4)cc3F)C(=O)O)cc2)c(=O)c2ccncc21 [Example 166, N-{4-[({4-[(Cyclopentylamino)carbonyl]phenyl}sulfonyl)amino]-2,6-difluorobenzoyl}-4-(1-methyl-2,4-dioxo-1,4-dihydropyrido[3,4-d]pyrimidin-3(2H)-yl)-L-phenylalanine] as the compound, how does the IC50 read?
Answer: The IC50 was 10 to 50 nM.

Question: Which IC50 does the source give for Cn1ccc(=O)n(-c2ccc(C[C@H](NC(=O)c3c(F)cc(NS(=O)(=O)c4ccc(C(=O)NC(C)(C)C)cc4)cc3F)C(=O)O)cc2)c1=O [Example 167, N-{4-[({4-[(tert-Butylamino)carbonyl]phenyl}sulfonyl)amino]-2,6-difluorobenzoyl}-4-(3-methyl-2,6-dioxo-3,6-dihydropyrimidin-1(2H)-yl)-L-phenylalanine] here?
Answer: The IC50 was no more than 10 nM.

Question: With Cn1c(=O)n(-c2ccc(C[C@H](NC(=O)c3c(F)cc(NS(=O)(=O)c4ccc(C(=O)NC(C)(C)C)cc4)cc3F)C(=O)O)cc2)c(=O)c2ccncc21 [Example 168, N-{4-[({4-[(tert-Butylamino)carbonyl]phenyl}sulfonyl)amino]-2,6-difluorobenzoyl}-4-(1-methyl-2,4-dioxo-1,4-dihydropyrido[3,4-d]pyrimidin-3(2H)-yl)-L-phenylalanine] as the compound, how does the IC50 read?
Answer: Its IC50 is no more than 10 nM.

Question: Which IC50 does the source give for Cn1ccc(=O)n(-c2ccc(C[C@H](NC(=O)c3c(F)cc(NS(=O)(=O)c4ccc(C(=O)NC5CCCCC5)cc4)cc3F)C(=O)O)cc2)c1=O [Example 169, N-{4-[({4-[(Cyclohexylamino)carbonyl]phenyl}sulfonyl)amino]-2,6-difluorobenzoyl}-4-(3-methyl-2,6-dioxo-3,6-dihydropyrimidin-1(2H)-yl)-L-phenylalanine] here?
Answer: Its IC50 is 10 to 50 nM.

Question: CCC(CC)NC(=O)c1ccc(S(=O)(=O)Nc2cc(F)c(C(=O)N[C@@H](Cc3ccc(-n4c(=O)ccn(C)c4=O)cc3)C(=O)O)c(F)c2)cc1 [Example 170, N-(4-{[(4-{[(1-Ethylpropyl)amino]carbonyl}phenyl)sulfonyl]amino}-2,6-difluorobenzoyl)-4-(3-methyl-2,6-dioxo-3,6-dihydropyrimidin-1(2H)-yl)-L-phenylalanine] was tested. Which IC50 did it give?
Answer: Its IC50 is no more than 10 nM.

Question: With Cn1ccc(=O)n(-c2ccc(C[C@H](NC(=O)c3c(F)cc(NS(=O)(=O)c4ccncc4)cc3F)C(=O)O)cc2)c1=O [Example 171, N-{2,6-Difluoro-4-[(pyridin-4-yl-sulfonyl)amino]benzoyl}-4-(3-methyl-2,6-dioxo-3,6-dihydropyrimidin-1 (2H)-yl)-L-phenylalanine] as the compound, how does the IC50 read?
Answer: The IC50 was 10 to 50 nM.

Question: With Cn1ccc(=O)n(-c2ccc(C[C@H](NC(=O)c3c(F)cc(NS(=O)(=O)c4ccc(C(=O)NCC5CCOCC5)cc4)cc3F)C(=O)O)cc2)c1=O [Example 172, N-(2,6-Difluoro-4-{[(4-{[(tetrahydro-2H-pyran-4-yl-methyl)amino]carbonyl}phenyl)sulfonyl]amino}benzoyl)-4-(3-methyl-2,6-dioxo-3,6-dihydropyrimidin-1(2H)-yl)-L-phenylalanine] as the compound, how does the IC50 read?
Answer: Its IC50 is no more than 10 nM.

Question: Which IC50 does the source give for Cn1ccc(=O)n(-c2ccc(C[C@H](NC(=O)c3c(F)cc(NS(=O)(=O)c4ccc(C(=O)NC(C)(C)C)nc4)cc3F)C(=O)O)cc2)c1=O [Example 173, N-{4-[({6-[(tert-Butylamino)carbonyl]pyridin-3-yl}sulfonyl)amino]-2,6-difluorobenzoyl}-4-(3-methyl-2,6-dioxo-3,6-dihydropyrimidin-1(2H)-yl)-L-phenylalanine] here?
Answer: Its IC50 is no more than 10 nM.

Question: For Cn1ccc(=O)n(-c2ccc(C[C@H](NC(=O)c3c(F)cc(NS(=O)(=O)c4ccc(C(=O)C5CC5)cc4)cc3F)C(=O)O)cc2)c1=O [Example 174, N-[4-({[4-(Cyclopropylcarbonyl)phenyl]sulfonyl}amino)-2,6-difluorobenzoyl]-4-(3-methyl-2,6-dioxo-3,6-dihydropyrimidin-1(2H)-yl)-L-phenylalanine], which IC50 is on record?
Answer: The IC50 was 10 to 50 nM.

Question: Which IC50 does the source give for Cc1cn(C)c(=O)n(-c2ccc(C[C@H](NC(=O)c3ccc(NS(=O)(=O)c4ccc(C(=O)NC(C)(C)C)nc4)cc3F)C(=O)O)cc2)c1=O [Example 175, N-{4-[({6-[(tert-Butylamino)carbonyl]pyridin-3-yl}sulfonyl)amino]-2-fluorobenzoyl}-4-(3,5-dimethyl-2,6-dioxo-3,6-dihydropyrimidin-1(2H)-yl)-L-phenylalanine] here?
Answer: The IC50 was 10 to 50 nM.
